Test results as given in US20260027068A1, “METHODS OF ADM[…]-KETAMINE” (Perception Neuroscience, Inc., priority 2022, published 2026).

What was measured:
CYP3A4 = test: In vitro CYP induction
rats = test: Anhedonic or negative affective side effects
healthy subjects = tested on: healthy subjects
Source text: To date, there has been one clinical trial that evaluated the safety of R(−)-ketamine.

CYP2C19 = CYP2C19 (Homo sapiens, UniProt P33261); test: In vitro CYP inhibition
CYP2C19, sequence (P33261 whole entry): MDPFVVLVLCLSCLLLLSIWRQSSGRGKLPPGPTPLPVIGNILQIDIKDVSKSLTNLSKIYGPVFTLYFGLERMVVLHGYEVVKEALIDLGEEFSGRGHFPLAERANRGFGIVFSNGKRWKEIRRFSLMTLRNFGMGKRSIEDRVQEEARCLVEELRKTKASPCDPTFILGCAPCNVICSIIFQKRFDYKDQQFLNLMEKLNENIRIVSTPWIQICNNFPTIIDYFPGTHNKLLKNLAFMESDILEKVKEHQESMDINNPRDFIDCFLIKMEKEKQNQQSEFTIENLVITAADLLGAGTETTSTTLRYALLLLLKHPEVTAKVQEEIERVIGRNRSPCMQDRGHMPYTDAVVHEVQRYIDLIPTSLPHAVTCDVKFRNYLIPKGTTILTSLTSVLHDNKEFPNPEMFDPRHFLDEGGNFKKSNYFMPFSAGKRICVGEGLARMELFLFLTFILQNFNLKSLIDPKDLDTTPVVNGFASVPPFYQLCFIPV

## CN[C@@]1(c2ccccc2Cl)CCCCC1=O.Cl [R(−)-ketamine, (2R)-2-(2-chlorophenyl)-2-(methylamino)cyclohexan-1-one]
CYP3A4
  CYP3A4 induction: inducer
rats
  Anhedonic or negative affective side effects: no anhedonic or negative affective side effects
Healthy subjects; 30 mg and 60 mg doses
  Safety findings compared with 100 mg or 150 mg doses: fewer transient elevations in mean systemic blood pressure, less sedation, fewer psychological or psychotic and dissociative effects, and fewer episodes of altered consciousness
Healthy subjects; healthy subjects
  Dose level most similar to 15 mg S(+)-ketamine in terms of safety profile: 60 mg
Healthy subjects; single 40-minute IV infusions, healthy subjects
  Doses with acceptable safety profiles: ≤ 150 mg
CYP2C19
  CYP2C19 inhibition: inhibitor
